Legend:
[1] = test system: Human breast cancer MDA-MB231 cells; type: in vivo, nude mice; details: MDA-MB231, nude mice, IV 13.2 μmol/kg once weekly for four weeks
Experimental: 1) Human breast cancer MDA-MB231 cells were purchased from American type culture collection (ATCC) and identified according the specification provided by ATCC. Cells were cultivated in […] (DMEM culture medium) containing 10% fetal bovine serum at 37° C. and 5% CO2. The cells were passaged for every three days and cells within the 15th passage were used.
2) Production of tumor. 5×10^6 MDA-MB231 cells were subcutaneously injected to the back of the nude mice. Mice were randomly grouped after the tumor reached at least 100 mm^3. Then treatment began and the day on which the treatment began was day 1.
3) Course of treatment. […] The drugs were administered once weekly for four weeks.
When R1 is 2-(2-Methoxyethoxy)Acetyl, and R3 is Ala, activation study and efficacy study were carried out by using compounds having different cleavable linker. The study methods are identical to those in Examples 10, 11 and 12. The in vitro activation efficiency was tested by asparagine endopeptidase and the tumor inhibition rate was tested by using human breast cancer MDA-MB231 model. […]

D121 lung tumor cells = type: in vivo, C57 mice; details: D121 immunized C57 mice, 13.2 μmol/kg weekly; PDL1 antibody 5 μg/kg where combined; Day 18
Experimental: 1) D121 lung tumor cells were purchased from ATCC. Cells were cultivated in DMEM culture solution containing 10% fetal bovine serum at 37° C. and 5% CO2. The cells were passaged for every three days and cells within the 15th passage were used.
2) Tumor immunization. 5×10^5 D121 lung cancer cells (purchased from ATCC) which were killed by irradiation were intraperitoneally injected to mice. The mice were injected for 3 times, once every two weeks. After immunization, mice were injected with tumor cells and the drugs were administered weekly for 4 weeks.
3) Production of tumor. At day 32, 10^6 live lung tumor cells were subcutaneously injected to the back of the C57 mice immunized by tumor. Treatment began when the tumor grew to 0.3-0.4 cm.
2) Tumor immunization. 5×10^5 D121 lung cancer cells (purchased from ATCC) which were killed by irradiation were intraperitoneally injected to mice. The mice were injected for 3 times, once every two weeks. After immunization, mice were injected with tumor cells and the drugs were administered weekly for 4 weeks. In table 16 below the immune group was immuned with D121 lung tumor cells and the group without dead D121 lung tumor cells was injected with physiological saline as controls.
3) Production of tumor. After immunization (4 weeks later), 10^6 live lung tumor cells were subcutaneously injected to the back of the C57 mice immunized by tumor. Treatment began when the tumor grew to 0.3-0.4 cm. Tumor size (mm^3) were noted and tumor inhibition rates were calculated.
2) Tumor immunization. 5×10^5 D121 lung cancer cells (purchased from ATCC) which were killed by irradiation were intraperitoneally injected to mice. The mice were injected for 3 times, once every two weeks. After immunization, mice were injected with tumor cells and the drugs were administered weekly for 4 weeks. In the table below the immune group was immuned with D121 lung tumor cells and the group without dead D121 lung tumor cells was injected with physiological saline as controls.
3) Production of tumor. At day 32, 10^6 live D121 lung tumor cells were subcutaneously injected to the back of the C57 mice immunized by tumor. Treatment began when the tumor grew to 0.3-0.4 cm.
1) D121 lung tumor cells were purposed from ATCC. Cells were cultivated in DMEM culture solution containing 10% fetal bovine serum at 37° C. and 5% CO2. The cells were passaged for every three days and cells within the 15th passage were used.

tumor CD8+ T cells = type: in vivo, C57 mice; details: D121 immunized C57 mice, 13.2 μmol/kg; ratio of CD8 positive cells in CD45 positive cells of tumor
Experimental: (§1) 4) Analysis on tumor CD8+ T cells. The tumor tissue was homogenated and individual cells in the tumor were filtered, separated and washed by buffer twice, then cultivated with the leucocyte common antigen CD45-PE and CD8-FITC marked antibodies for 1 hour at ambient temperature. The cells were washed by phosphate buffer containing 1% fetal bovine serum twice and then analyzed for the ratio of the T lymphocyte antigen (CD8) positive cells in the leucocyte common antigen (CD45) positive cells by flow cytometry.
as §1, with “CD45-PE and T-lymphocyte antigen CD8-FITC marked” for “CD45-PE and CD8-FITC marked”, “flow cytometry. Increasement of the ratio indicates increased T lymphocyte cells and thus the animal immunity against the tumor was improved.” for “flow cytometry.”
as §1, with “cytometry. Increasement of the ratio indicates increased T lymphocyte cells and thus the animal immunity against the tumor was improved.” for “cytometry.”

CC[C@@]1(O)C(=O)OCc2c1cc1n(c2=O)Cc2cc3ccccc3nc2-1 [camptothecin]
Inhibitory rate on tumor (%) Day 10 [1]: 15%
Size of tumor (mm^3) Day 10 [1]: 258.45 ± 57.43 mm^3
Inhibitory rate on tumor (%) Day 24 [1]: 19%
Size of tumor (mm^3) Day 24 [1]: 847.46 ± 157.56 mm^3
Inhibitory rate on tumor Day 18 (D121 lung tumor cells): 34.47
Size of tumor (mm^3) Day 18 (D121 lung tumor cells): 889.56 ± 148.56 mm^3
CD8: CD45 (%) (tumor CD8+ T cells): 13.2%

CCCCCOC(=O)Nc1nc(=O)n([C@@H]2O[C@H](C)[C@@H](O)[C@H]2O)cc1F [capecitabine]
Inhibitory rate on tumor (%) Day 10 [1]: 26%
Size of tumor (mm^3) Day 10 [1]: 225.53 ± 74.45 mm^3
Inhibitory rate on tumor (%) Day 24 [1]: 9%
Size of tumor (mm^3) Day 24 [1]: 946.43 ± 275.86 mm^3
Inhibitory rate on tumor Day 18 (D121 lung tumor cells): 29.75
Size of tumor (mm^3) Day 18 (D121 lung tumor cells): 953.65 ± 245.43 mm^3
CD8: D45 (%) (tumor CD8+ T cells): 13.6%

COc1cccc2c1C(=O)c1c(O)c3c(c(O)c1C2=O)C[C@@](O)(C(C)=O)C[C@@H]3O[C@H]1C[C@H](N)[C@H](O)[C@H](C)O1 [daunorubicin]
Inhibitory rate on tumor (%) Day 10 [1]: 43%
Size of tumor (mm^3) Day 10 [1]: 174.78 ± 78.43 mm^3
Inhibitory rate on tumor (%) Day 24 [1]: 17%
Size of tumor (mm^3) Day 24 [1]: 864.01 ± 67.45 mm^3
Inhibitory rate on tumor Day 18 (D121 lung tumor cells): 21.63
Size of tumor (mm^3) Day 18 (D121 lung tumor cells): 1063.86 ± 317.56 mm^3
CD8: D45 (%) (tumor CD8+ T cells): 13.2%
